pIC50: −log10 of the molar value.
Target: Albumin (Bos taurus, UniProt P02769)
Sequence (P02769 whole entry): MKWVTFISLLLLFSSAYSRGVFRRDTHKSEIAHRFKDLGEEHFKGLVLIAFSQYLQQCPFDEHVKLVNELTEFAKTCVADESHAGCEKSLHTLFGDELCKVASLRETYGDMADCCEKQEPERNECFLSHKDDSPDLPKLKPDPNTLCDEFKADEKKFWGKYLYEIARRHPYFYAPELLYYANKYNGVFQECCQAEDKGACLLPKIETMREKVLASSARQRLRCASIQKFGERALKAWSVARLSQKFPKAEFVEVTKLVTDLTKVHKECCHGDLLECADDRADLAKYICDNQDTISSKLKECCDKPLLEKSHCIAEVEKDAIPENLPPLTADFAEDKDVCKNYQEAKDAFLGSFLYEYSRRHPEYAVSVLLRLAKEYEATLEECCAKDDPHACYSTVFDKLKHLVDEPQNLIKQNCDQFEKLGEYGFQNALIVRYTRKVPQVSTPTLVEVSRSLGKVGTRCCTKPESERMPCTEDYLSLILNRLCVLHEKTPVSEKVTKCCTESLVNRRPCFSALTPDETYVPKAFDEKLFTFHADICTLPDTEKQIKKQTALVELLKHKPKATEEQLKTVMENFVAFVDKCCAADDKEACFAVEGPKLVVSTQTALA

| Structure (SMILES) | pIC50 |
| --- | --- |
| CC1=CC(/C=N/n2c(COc3ccccc3C)nc3ccccc3c2=O)C(=O)C([N+](=O)[O-])=C1 (stereo not drawn) | < 4.03 |
| COc1ccc(CC(=O)N/N=C/C2C=C([N+](=O)[O-])C=C(Br)C2=O)cc1 (stereo not drawn) | < 4.03 |
| CC1=CC(/C=N/n2c(CO[N-][C+](C)c3ccccc3)nc3ccccc3c2=O)C(=O)C([N+](=O)[O-])=C1 (stereo not drawn) | < 4.03 |
| O=C(N/N=C/C1C=CC=C([N+](=O)[O-])C1=O)c1cccs1 (stereo not drawn) | < 4.03 |
| COC1=CC([N+](=O)[O-])=CC(/C=N/NC(=O)c2cc(C)nc3ccccc23)C1=O (stereo not drawn) | < 4.03 |
| O=C(N/N=C/C1C=C([N+](=O)[O-])C=CC1=O)c1cccc(N2CCCC2=O)c1 (stereo not drawn) | < 4.03 |
| CCOC(=O)C1C(CC)=Nc2ccccc2N=C1NC(=O)Nc1ccc(Cl)c(Cl)c1 (stereo not drawn) | < 4.03 |
| O=C(NN=CC1=CC(=O)C(=O)CC1)NN=CC1=CC(=O)C(=O)CC1 [1,3-bis[[(Z)-(3-hydroxy-4-oxocyclohexa-2,5-dien-1-ylidene)methyl]amino]urea] | < 4.03 |
| O=C1C([N+](=O)[O-])=CC(Cl)=CC1C=NNC(=S)Nc1ccc(S(=O)(=O)N2CCOCC2)cc1 (stereo not drawn) [1-[[(E)-(3-chloro-5-nitro-6-oxo-1-cyclohexa-2,4-dienylidene)methyl]amino]-3-[4-(4-morpholinylsulfonyl)phenyl]thiourea] | < 4.03 |
| Nc1nnc(CC(=O)N/N=C/C2C=C([N+](=O)[O-])C=CC2=O)s1 (stereo not drawn) [2-(5-amino-1,3,4-thiadiazol-2-yl)-N'-[(E)-(3-nitro-6-oxo-1-cyclohexa-2,4-dienylidene)methyl]acetohydrazide] | < 4.03 |
| O=C(CNC(=O)c1ccccc1Br)N/N=C/C1C=C([N+](=O)[O-])C=C(Br)C1=O (stereo not drawn) [2-bromanyl-N-[2-[2-[(E)-(5-bromanyl-3-nitro-6-oxidanylidene-cyclohexa-2,4-dien-1-ylidene)methyl]hydrazinyl]-2-oxidanylidene-ethyl]benzamide] | < 4.03 |
| O=C1C=CC([N+](=O)[O-])=CC1/C=N/n1c(COc2ccccc2)nc2ccccc2c1=O (stereo not drawn) [3-[[(E)-(3-nitro-6-oxocyclohexa-2,4-dien-1-ylidene)methyl]amino]-2-(phenoxymethyl)quinazolin-4-one] | < 4.03 |
| O=C1CC(=O)c2c(O)cc(O)c(O)c2C1=O [4,5,7,8-tetrahydroxy-1,2-naphthoquinone] | < 4.03 |
| Oc1c(Br)cc(CC=Nc2cc(O)c3cccnc3c2O)cc1Br [7-[2-(3,5-dibromo-4-hydroxyphenyl)ethylamino]quinoline-5,8-dione] | < 4.03 |
| Oc1ccc(CN=Nc2ncnc3c2ncn3Cc2ccccc2)cc1O [(4Z)-2-oxidanyl-4-[[2-[9-(phenylmethyl)purin-6-yl]hydrazinyl]methylidene]cyclohexa-2,5-dien-1-one] | < 4.03 |
| O=[N+]([O-])c1cc(Br)c(O)c(CN=Nc2nnnn2-c2cccc3ccccc23)c1 [(6E)-2-bromo-6-[[2-(1-naphthalen-1-yltetrazol-5-yl)hydrazinyl]methylidene]-4-nitrocyclohexa-2,4-dien-1-one] | < 4.03 |
| CCc1n[nH]c(=S)n1N=CC1C=C(OC)C=C([N+](=O)[O-])C1=O (stereo not drawn) [(6E)-6-[[(3-ethyl-5-sulfanylidene-1H-1,2,4-triazol-4-yl)amino]methylidene]-4-methoxy-2-nitro-1-cyclohexa-2,4-dienone] | < 4.03 |
| C=CCN1C(=O)/C(=N\NC(=O)CNC(=O)/C=C/c2ccco2)c2ccccc21 [(E)-N-[1-Allyl-2-oxo-1,2-dihydro-indol-(3Z)-ylidene-hydrazinocarbonylmethyl]-3-furan-2-yl-acrylamide] | < 4.03 |
| O=C(N/N=C/C1C=C([N+](=O)[O-])C=CC1=O)/C(=C\c1cccs1)NC(=O)c1ccccc1 (stereo not drawn) [MLS000332530] | < 4.03 |
| Cc1cc(C(=O)N/N=C/C2C=C(Br)C=C([N+](=O)[O-])C2=O)c2ccccc2n1 (stereo not drawn) [MLS000585468] | < 4.03 |
| Cc1cc(=O)oc2cc(OCC(=O)N/N=C/C3C=C([N+](=O)[O-])C=CC3=O)ccc12 (stereo not drawn) [MLS000588734] | < 4.03 |
| COC1=CC(=O)C(/C=N/NC(=O)c2ccncc2)C(OC)=C1[N+](=O)[O-] (stereo not drawn) [MLS000673335] | < 4.03 |
| Cc1cc2cc(CNC(=O)c3ccc(C)c([N+](=O)[O-])c3)ccc2[nH]1 [MLS000724615] | < 4.03 |
| O=C(CSc1nc2ccccc2s1)N/N=C/C1C=C([N+](=O)[O-])C=CC1=O (stereo not drawn) [MLS000777065] | < 4.03 |
| CC1=CC([N+](=O)[O-])=CC(/C=N/n2c(C)nc3ccccc3c2=O)C1=O (stereo not drawn) [MLS000778735] | < 4.03 |

Further lines, results first:

| pIC50 | Structure (SMILES) |
| --- | --- |
| < 4.03 | O=C1C=CC([N+](=O)[O-])=CC1C=NNC(=S)Nc1ccc(Cl)cc1Cl (stereo not drawn) [MLS000777079] |
| < 4.03 | CN1C(=O)C(C=NNC(=O)c2cc3ccccc3cc2O)c2ccccc21 (stereo not drawn) [MLS000912237] |
| < 4.03 | O=C(N/N=C/C1C=C(Cl)C=C([N+](=O)[O-])C1=O)c1cccc(S(=O)(=O)N2CCOCC2)c1 (stereo not drawn) [MLS002155639] |
| < 4.03 | O=C(N/N=C/C1C=C(Cl)C=C([N+](=O)[O-])C1=O)c1ccc2c(c1)OCO2 (stereo not drawn) [N'-[(E)-(3-chloranyl-5-nitro-6-oxidanylidene-cyclohexa-2,4-dien-1-ylidene)methyl]-1,3-benzodioxole-5-carbohydrazide] |
| < 4.03 | Cc1cc(C(=O)N/N=C/C2C=C(Cl)C=C([N+](=O)[O-])C2=O)c2ccccc2n1 (stereo not drawn) [N'-[(E)-(3-chloranyl-5-nitro-6-oxidanylidene-cyclohexa-2,4-dien-1-ylidene)methyl]-2-methyl-quinoline-4-carbohydrazide] |
| < 4.03 | CC1=CC([N+](=O)[O-])=CC(/C=N/NC(=O)C2COc3ccccc3O2)C1=O (stereo not drawn) [N'-[(E)-(5-methyl-3-nitro-6-oxocyclohexa-2,4-dien-1-ylidene)methyl]-2,3-dihydro-1,4-benzodioxine-3-carbohydrazide] |
| < 4.03 | Cc1ccccc1C(=O)Nc1cccc(C(=O)N/N=C/C2C=C(Cl)C=C([N+](=O)[O-])C2=O)c1 (stereo not drawn) [N-(3-{[(2E)-2-(5-chloro-2-hydroxy-3-nitrobenzylidene)hydrazino]carbonyl}phenyl)-2-methylbenzamide] |
| < 4.03 | Cc1ccc(C(=O)Nc2nc(C(C)(C)C)cs2)s1 [N-(4-tert-butyl-2-thiazolyl)-5-methyl-2-thiophenecarboxamide] |
| < 4.03 | O=C(NC(C(=O)NN=CC1C=C([N+](=O)[O-])C=CC1=O)c1n[nH]c(=O)c2ccccc12)c1ccccc1 (stereo not drawn) [N-[2-[2-[(E)-(3-nitro-6-oxidanylidene-cyclohexa-2,4-dien-1-ylidene)methyl]hydrazinyl]-2-oxidanylidene-1-(4-oxidanylidene-3H-phthalazin-1-yl)ethyl]benzamide] |
| < 4.03 | CC(NNC(=O)c1ccc(-c2ccccc2)cc1)=C1C(=O)c2ccccc2C1=O [N-[(E)-1-(1,3-dioxoinden-2-yl)ethylideneamino]-4-phenylbenzamide] |
| < 4.03 | O=C(N/N=C/C1C=C([N+](=O)[O-])C=C([N+](=O)[O-])C1=O)/C(=C\c1cccs1)NC(=O)c1ccccc1 (stereo not drawn) [SMR000207704] |
| < 4.03 | O=C1C([N+](=O)[O-])=CC=CC1/C=N/n1cnc2scc(-c3ccc(Cl)cc3)c2c1=O (stereo not drawn) [SMR000314525] |
| < 4.03 | Cc1cc(C(=O)NN=CC2C=C(Cl)C=C([N+](=O)[O-])C2=O)[nH]n1 (stereo not drawn) [SMR000414694] |
| < 4.03 | Cc1c(NC(=S)NN=CC2C=C([N+](=O)[O-])C=CC2=O)c(=O)n(-c2ccccc2)n1C (stereo not drawn) [SMR000415003] |
| < 4.03 | COc1ccc(C(=O)CC=NNC(=O)c2ccc(Cl)cc2)cc1 [SMR000499516] |
| < 4.03 | O=Nc1[nH]c(=O)c(CC(=O)c2ccccc2)nc1NO [SMR000539633] |
| < 4.03 | O=C(O)c1ccccc1NS(=O)(=O)c1ccc(N=NCc2ccc(O)c(O)c2)c([N+](=O)[O-])c1 [SMR001238114] |
| < 4.03 | CCOC(=O)c1c(C)[nH]c(C(=O)N/N=C/C2C=C([N+](=O)[O-])C=CC2=O)c1C (stereo not drawn) [ethyl 2,4-dimethyl-5-[[[(E)-(3-nitro-6-oxocyclohexa-2,4-dien-1-ylidene)methyl]amino]carbamoyl]-1H-pyrrole-3-carboxylate] |

— BindingDB's records for doi:10.7270/Q2RX99Q9 (The Scripps Research Institute Molecular Screening Center, 2013)
